How the values were obtained:
Format in all cases: cell-based
Caco-2 = test: Proliferation assay (crystal violet), Caco-2; settings: Homo sapiens, 96 h; Caco-2 cells; 4 days incubation; crystal violet staining; read-out: IC50 inhibition of proliferation, Caco2
How it was run: (§1)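 Absorbance at 595 nm of crystal-violet-stained cells after 4 days' exposure to 0.001–10 μM compound (0.5% DMSO). Values normalized to a day-0 plate (0%) and untreated cells (100%); IC50 by 4-parameter fit.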

HeLa-MaTu-ADR = test: Proliferation assay (crystal violet), HeLa-MaTu-ADR; settings: 96 h; HeLa-MaTu-ADR cells; 4 days incubation; crystal violet staining; read-out: IC50 inhibition of proliferation, HeLa-MaTu-ADR
How it was run: as §1

DU145 = test: Proliferation assay (crystal violet), DU145; settings: Homo sapiens, DU-145, 96 h; DU145 cells; 4 days incubation; crystal violet staining; read-out: IC50 inhibition of proliferation, DU145
How it was run: as §1

[1] = test system: human cervical tumor cell line HeLa (ATCC CCL-2); test: SAC-Formation - Nocodazole-Induced Assay; settings: Homo sapiens, HeLa, 24 h, HeLa cells, nocodazole 0.1 μg/ml together with test compound, decrease of mitotic cells (phospho-histone H3 Ser10)
How it was run: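 Loss of phospho-histone H3 Ser10-positive cells, counted against Hoechst-stained nuclei by high-content imaging, marked mitotic breakthrough. Compounds (0.005–20 μM, 0.5% DMSO) were co-dosed with 0.1 μg/ml nocodazole onto HeLa cells for 24 h at 37 °C. Curves were fitted with a four-parameter Hill equation.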

B16F10 = test: Proliferation assay (crystal violet), B16F10; settings: Mus musculus, B16-F10, 96 h; B16F10 cells; 4 days incubation; crystal violet staining; read-out: IC50 inhibition of proliferation, B16F10
How it was run: as §1

NCI-H460 = test: Proliferation assay (crystal violet), NCI-H460; settings: Homo sapiens, 96 h; NCI-H460 cells; 4 days incubation; crystal violet staining; read-out: IC50 inhibition of proliferation, NCI-H460
How it was run: as §1

| Structure (SMILES) | IC50 (Caco-2) | IC50 (HeLa-MaTu-ADR) | IC50 (DU145) | IC50 [1] | IC50 (B16F10) | IC50 (NCI-H460) |
| --- | --- | --- | --- | --- | --- | --- |
| Cc1nsc(Nc2ccc(C#N)cn2)c1C(=O)Nc1ccc(OC2CCN(CC(F)(F)F)CC2)nc1 [Example 30, 5-[(5-Cyanopyridin-2-yl)amino]-3-methyl-N-(6-{[1-(2,2,2-trifluoroethyl)piperidin-4-yl]oxy}pyridin-3-yl)-1,2-thiazole-4-carboxamide] | 350 nM | 230 nM | 640 nM | 620 nM | 390 nM | 310 nM |
| Cc1nsc(Nc2cnc3ccccc3n2)c1C(=O)Nc1ccc(OC2CCCN(C(=O)OC(C)(C)C)C2)nc1 (stereo not drawn) [Example 31, tert-Butyl 3-{[5-({[3-methyl-5-(quinoxalin-2-ylamino)-1,2-thiazol-4-yl]carbonyl}-amino)pyridin-2-yl]oxy}piperidine-1-carboxylate] | 1100 nM | 880 nM | 3000 nM | 220 nM | 950 nM | 730 nM |
| Cc1nsc(Nc2cnc(C(F)(F)F)cn2)c1C(=O)Nc1ccc(F)c(OC[C@H]2CCN(CC(F)F)C2)c1 [Example 397, N-(3-{[(3S)-1-(2,2-difluoroethyl)pyrrolidin-3-yl]methoxy}-4-fluorophenyl)-3-methyl-5-{[5-(trifluoromethyl)pyrazin-2-yl]amino}-1,2-thiazole-4-carboxamide] |  |  |  | 31 nM |  |  |
| Cc1nsc(Nc2cnc(C(F)(F)F)cn2)c1C(=O)Nc1ccc(F)c(OC[C@H]2CCN(CC(F)(F)F)C2)c1 [Example 398, N-(4-fluoro-3-{[(3S)-1-(2,2,2-trifluoroethyl)pyrrolidin-3-yl]methoxy}phenyl)-3-methyl-5-{[5-(trifluoromethyl)pyrazin-2-yl]amino}-1,2-thiazole-4-carboxamide] |  |  |  | 28 nM |  |  |
| Cc1nsc(Nc2cnc(C(F)(F)F)cn2)c1C(=O)Nc1ccc(F)c(OC[C@H]2CCN(CCC(F)(F)F)C2)c1 [Example 399, N-(4-fluoro-3-{[(3S)-1-(3,3,3-trifluoropropyl)pyrrolidin-3-yl]methoxy}phenyl)-3-methyl-5-{[5-(trifluoromethyl)pyrazin-2-yl]amino}-1,2-thiazole-4-carboxamide] |  |  |  | 29 nM |  |  |

Reference: patent US20170334899A1, “AMINO-SUBSTITUTED ISOTHIAZOLES” (Bayer Pharma Aktiengesellschaft, priority 2014, published 2017)
